In patent US20230064978A1, “CYCLIC PEPTIDE RECEPTOR LANTHIONINE SYNTHETASE C-LIKE PROTEIN (LANCL) AND USES THEREOF” (LATERAL IP PTY LTD, priority 2019, published 2023):
Entries after “also recorded” stand apart in the source; their conditions may differ. Bridges are numbered along the chain shown (N, C = ends). Where no end group is shown, it is not given here.

Legend:
[1] = system: Dorsal root ganglion (DRG) neurons; assay: Cell-binding fluorescence on cultured DRG neurons, paclitaxel neuropathy model; type: cell-based; details: DRG neurons from paclitaxel-treated vs untreated mice; probe 5 μM (FIG. 1)
Experimental: The cell-binding fluorescence protocol can be briefly described as follows. […] Model of chemotherapy-induced peripheral neuropathy was generated using paclitaxel in female C57/B16 mice—[…] Paclitaxel or vehicle (10 ml/kg body weight) injected intravenously (i.v.) on day 1, day 3 and day 5. Mechanical allodynia was confirmed using von Frey (VF) filaments 9 days after starting vehicle or paclitaxel treatment (left and right paws). Each of the ten C57/B16 mice (vehicle control and paclitaxel treated) were euthanized by CO2 inhalation and individually dissected.
L5-L6 DRGs were rapidly dissected and placed in Petri dishes containing dissection medium. Meninges were removed.
Each DRG pool was successively: • incubated in dissociation buffer (0.5 mg/ml Dispase, 2.5 mg/ml collagenase, 6 mg/ml BSA, 10 mM HEPES) for 30 min at 37° C. under gentle agitation at 800 rounds/min; • washed; • triturated in culture medium and filtered on a 40 μm filter; • re-suspended in 1 ml culture medium supplemented with nerve growth factor (NGF) 250 ng/ml.
Dissociated cells from each pool were counted, seeded on Poly-D-Lysin- and Laminin-coated μ slides at the density of 4×10^4 cells/well and incubated at 37° C. 5% CO2. The medium was changed daily for 3 days. […]

spinal cord slice model = assay: Spinal cord slice model; details: data not shown
NCI-H358 cells = assay: Confocal imaging of LAT9991F-PAL binding and LANCL1 co-localization, with siRNA knockdown and competitors, in NCI-H358 cells; type: cell-based; details: SiLANCL1 NCI-H358 cells; competitor 25 μM
Experimental: A photoactivatable analog of LAT8881 (LAT9991F (SEQ ID NO:13)-PAL), was used to conduct the experiments. A549 or NCI-H358 cells were treated with LAT9991F-PAL at 2.5 μM during 30 minutes. Fluorescent signal was recorded after that LAT9991F-PAL was immobilized on its target(s) site by UV-crosslinking and the LAT9991F-PAL-target complexes were labeled with the green-fluorescent Alexa Fluor 488 alkyne dye by click-chemistry. Control cells were treated with the vehicle, dimethyl sulfoxide (DMSO), and with LAT9991F-PAL in combination with a large excess of the parent drug LAT8881 or other competitors, GSH, NSC61610 or ABA to evaluate, respectively, the non-specific fluorescent background and the specificity of the staining. For colocalization experiments, subsequently, immunofluorescence staining with an anti-LANCL1 or LANCL2 antibodies and an Alexa 568 (red) conjugated secondary antibody was performed. Images stacks of cells labeled with probes were collected and evaluated for the degree of colocalization of LAT9991F-PAL-target complexes and LANCL1 or LANCL2 using either the Measure Colocalization plugin in Metamorph or the JACoP plugin in ImageJ).
A549 or NCI-H358 cells (ATCC CCL-185 and ATCC CRL-5807, respectively) were cultured in appropriate medium containing 10% heat-inactivated FBS (Dutscher, #SV30160-036), 1% penicillin/streptomycin (Gibco, #15140-122) and maintained in a humidified 37° C. incubator with 5% CO2.
LAT9991F-PAL was dissolved in DMSO to make a 10 mM stock solution. Intermediate solutions at 25 μM and 2.5 μM were made in the culture medium from the 10 mM stock solutions of LAT8881 and LAT9991F-PAL, respectively. A two-fold dilution into PBS of each intermediate solution was used for cell treatment. A stock solution at 10 mM was prepared for the other competitors as GSH, NSC61610 and ABA. A final concentration at 25 μM was used for the assay.
ibidiTreat Polymer Coverslips (Ibidi, #80826) were coated with serum during 1 hour at 37° C., followed by Laminin (100 μg\ml) (incubation for 1 hour at 37° C.) for NCI-H358 cells.
A549 or NCI-H358 cells were seeded onto ibidiTreat Polymer Coverslips (Ibidi, #80826) at 2.5×10^5 cells/cm^2 in 200 μl of complete medium. After 24 hours, the medium was removed and cells were washed with PBS (Gibco, #10010049) and then pre-treated with the Taxol at 1 μM for 3 hours or with H2O2 25 μM for 2 hours. Cells were washed twice with PBS. Induced stress cells or control cells were then exposed to LAT9991F-PAL (2.5 μM) in PBS for 30 minutes, in the presence or absence of LAT8881 (25 μM), or the other compounds used as a competitor, and pre-incubated 10 minutes. After treatment, cells were washed with cold PBS and UV-irradiated (365 nm) in PBS for 20 min. After fixation with 4% paraformaldehyde and permeabilization (0.5% Triton/PBS) (Image-iT™ Fixation/Permeabilization Kit, ThermoFisher, #R37602), the bioorthogonal reaction with Alexa Fluor 488 Alkyne (1 μM) (ThermoFisher, #A10267) was performed at 25° C. using the Click-iT™ Cell Reaction Buffer Kit (ThermoFisher, #C10269) according to the manufacturer protocol. After click reaction, cells were washed twice with PBS, blocked with 3% BSA in PBS for 1 hour and stained with Hoechst 33342 dye (ThermoFisher, #H1399).
For colocalization experiments, cells were further incubated overnight at 4° C. with a mouse anti-LanCL1 antibody (Invitrogen, PAS-57-107) (dilution 1:1000) or LanCL2 (Atlas Antibodies HPA019711) (dilution 1:1000) in 3% BSA in PBS, washed twice with PBS, and then incubated respectively with a goat anti-mouse […] (Molecular Probes, #A21467) (dilution 1:800) for 1 h in 3% BSA in PBS. After three further washing steps with PBS, cells were embedded in Ibidi Mounting Medium (ibidi, #50001). The specimens were kept at 4° C. in the dark until analysis.
Images were acquired on an Axiovert200M (Zeiss) microscope using a CSU-W1 Yokogawa confocal unit.

## LAT9991-PAL: cyclic peptide of SEQ ID NO:12 (LAT9991) conjugated to the PAL (Photo-Activated Labelling) grouping (CRSVEGSCG; disulfide 1-8 (inferred); also: PAL group on N-terminal Cys-Arg part)
[1]
  Binding of PAL probe to DRG neurons: can be seen in DRG neurons from mice treated with paclitaxel (neuropathic pain model), but not in control untreated mice; also recorded: only to neurons from treated and neuropathic animals
Spinal cord slice model
  Activity on the spinal cord slice model: fully active

## YLRIVQCRSVEGSCGF [LAT8881, a cyclic peptide fragment of human growth hormone]
NCI-H358 cells
  Competition of LAT9991F-PAL binding by excess competitor: partially competed off
